Reference: patent US20210322386A1, “METHODS OF DELAYING AND REVERSING ALZHEIMER'S DISEASE PROGRESSION” (Loma Linda University, priority 2018, published 2021)
Entries after “also recorded” stand apart in the source; their conditions may differ. Read-outs that look alike come from different tables or passages of the source.

Assays:
[1] = test system: mice fed a high-cholesterol diet; assay: Y-maze test of cognitive function in mice fed a high-cholesterol diet; type: in vivo; settings: mice on high-cholesterol diet (standard chow containing 0.5% cholesterol), 8 weeks of treatment, about 0.4 mg anastrozole/animal/day in LabGel
Description: A pilot study was carried out to assess the safety profile and cognitive impact of anastrozole in 12-week old male mice. Mice were fed anastrozole or placebo (vehicle alone) for a period of 8 weeks using a hydrogel as the means of administration (n=6 per group). Because of the poor palatability of anastrozole in its available form, it was administered through a hydration gel especially designed for medication delivery (LabGel-ClearH20 catalog # 71-02-1081; Portland, Me.), LabGel consists of purified water, sucralose, fruit and natural flavoring, hydrocolloids, potassium sorbate, sodium benzoate, and phosphoric acid. […] Mice were monitored for health decline signs, and given an Appearance Score (Normal skin; skin tent on dorsum; hunched posture; eyes sunken in and severe skin tent; and failure to right self) and an Attitude Score (Normal; decreased activity; lethargy; non-responsiveness; and failure to flee when hand present in cage), as described (Bekkevold et al., J Am Assoc Lab Anim Sci, 52: 233-9, 2013).
12-week old male mice on either a normal or high-cholesterol diet were tested on the same day with an interval of 2 hours between the training 15 min) and testing (5 min) phases. Data were analyzed by one-way ANOVA and Bonferroni post-hoc test. […]

[2] = test system: 12-week old male mice; assay: Pilot study of safety profile of anastrozole in mice (Appearance/Attitude Scores, weight gain, postmortem organs); type: in vivo
Description: A pilot study was carried out to assess the safety profile and cognitive impact of anastrozole in 12-week old male mice. Mice were fed anastrozole or placebo (vehicle alone) for a period of 8 weeks using a hydrogel as the means of administration (n=6 per group). Because of the poor palatability of anastrozole in its available form, it was administered through a hydration gel especially designed for medication delivery (LabGel-ClearH20 catalog # 71-02-1081; Portland, Me.), LabGel consists of purified water, sucralose, fruit and natural flavoring, hydrocolloids, potassium sorbate, sodium benzoate, and phosphoric acid. For each 236 mL dose of LabGel, 45 mg of anastrozole powder, 40 μL of red food coloring, and 1 mL of propylene glycol are thoroughly mixed and the resulting anastrozole is distributed into mouse cages at 3 grams LabGel/mouse/day in a custom--made container easily accessible to the mice. The final concentration of anastrozole in the LabGel is 0.1906 mg/mL and it is kept fresh by replacing it every 48 hours. In the experiment, mice consumed about 2 mL/mouse/day of LabGel equating to about 0.4 mg anastrozole/animal/day, which is consistent with the literature (Overk et al., J Neurosci Methods, 195: 194-9, 2011). Mice were monitored for health decline signs, and given an Appearance Score (Normal skin; skin tent on dorsum; hunched posture; eyes sunken in and severe skin tent; and failure to right self) and an Attitude Score (Normal; decreased activity; lethargy; non-responsiveness; and failure to flee when hand present in cage), as described (Bekkevold et al., J Am Assoc Lab Anim Sci, 52: 233-9, 2013).

[3] = biological target: T1, CYP27A1 enzyme (Homo sapiens, UniProt Q02318); settings: from Mast et al., Mol. Pharmacol., 2015, cited from earlier work
T1 sequence (Q02318 34-531): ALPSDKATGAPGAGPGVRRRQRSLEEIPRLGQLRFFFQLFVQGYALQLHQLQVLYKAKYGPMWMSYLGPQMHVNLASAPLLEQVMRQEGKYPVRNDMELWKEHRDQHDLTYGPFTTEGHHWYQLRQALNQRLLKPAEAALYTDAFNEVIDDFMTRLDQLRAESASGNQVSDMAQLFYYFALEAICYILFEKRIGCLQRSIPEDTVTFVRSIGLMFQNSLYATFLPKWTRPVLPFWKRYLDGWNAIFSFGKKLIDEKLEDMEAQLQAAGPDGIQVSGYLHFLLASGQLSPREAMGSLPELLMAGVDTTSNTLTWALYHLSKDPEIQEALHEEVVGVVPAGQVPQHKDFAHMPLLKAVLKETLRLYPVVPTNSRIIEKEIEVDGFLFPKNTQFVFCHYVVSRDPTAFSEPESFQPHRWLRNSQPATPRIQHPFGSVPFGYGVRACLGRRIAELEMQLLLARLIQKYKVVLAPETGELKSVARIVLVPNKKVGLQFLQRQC

SMILES	inhibition of the CYP27A1 enzyme [3]	further results
CC(C)(C#N)c1cc(Cn2cncn2)cc(C(C)(C)C#N)c1 [anastrozole]	Inhibitors of the CYP27A1 enzyme	cognitive function as measured by Y-maze test [1]: protects against cognitive loss; also recorded: ameliorates the negative effect of a high-cholesterol diet on cognitive function; signs of health decline (Appearance Score and Attitude Score) ([2]; 8 weeks, about 0.4 mg anastrozole/animal/day in LabGel): No signs of health decline; postmortem evaluation of major organs ([2]; after 8 weeks): no signs of toxicity; weight gain progression vs vehicle group ([2]; throughout the 8-week study): identical between both groups; inhibition of the CYP27A1 enzyme ([3]; listed as Anastrozole): shown to inhibit the CYP27A1 enzyme
Cc1cccc([C@H](C)c2cnc[nH]2)c1C [dexmedetomidine]	Inhibitors of the CYP27A1 enzyme	–
CC[C@@H]([C@H](C)O)n1ncn(-c2ccc(N3CCN(c4ccc(OC[C@@H]5CO[C@@](Cn6cncn6)(c6ccc(F)cc6F)C5)cc4)CC3)cc2)c1=O [posaconazole]	Inhibitors of the CYP27A1 enzyme	–
N#Cc1ccc(C2CCCc3cncn32)cc1 (stereo not shown) [fadrozole]	Inhibitors of the CYP27A1 enzyme	–
C[C@@H](c1nc(-c2ccc(C#N)cc2)cs1)[C@](O)(Cn1cncn1)c1ccc(F)cc1F [ravuconazole]	Inhibitors of the CYP27A1 enzyme	–
